Test results as given in patent publication US20080312209A1, “Piperazine Heteroaryl Derivatives as Gpr38 Agonists” (Glaxo Group Limited, priority 2005, published 2008).

Key:
hGPR38R [1] = target: T1, hGPR38R (Homo sapiens, UniProt O43193); assay: GPR38 FLIPR functional agonist assay; type: cell-based; parameters: expressed in transfected cells; conditions: HEK-293 cells stably expressing the GPR38 receptor, agonist response, Fluo-4 fluorescence
Method: The potencies and efficacies of the compounds of this invention for GPR^38 can be determined by FLIPR assay performed on the human cloned receptor as described herein. It has been found, using the FLIPR functional assay, that compounds of formula (I) appear to be partial or full agonists of the GPR38 receptor.
GPR38FLIPR Functional Agonist Assay Protocol
HEK-293 cells stably expressing the GPR38 receptor were seeded (10,000 cells/well) into poly-D-lysine coated 384-well black-wall, clear-bottom microtitre plates (Becton Dickinson) 24 h prior to assay. On day of assay, cells were washed (×2) with 80 ul of assay buffer (Hanks Balanced Salts Solution (HBSS), 10 mM HEPES, 200 μM Ca^2+, 2.5 mM probenecid) using the EMBLA cell washer. After the final wash, buffer was aspirated to leave a residual volume of 30 ul on the cells. Cells were loaded with 1 μM (final) Fluo-4-AM fluorescent indicator dye (TefLabs) in assay buffer, (20 ul loading solution added to each well using the Multidrop). Plates were incubated for 1 h at 37° C., before being washed (×3) with 80 ul assay buffer using the EMBLA cell washer; 30 ul residual being left after the final wash. Plates were then assayed on a Fluorometric Imaging Plate Reader (FLIPR, Molecular Devices). Test compounds were prepared in assay buffer without probenecid, but containing 0.03% CHAPS. In the FLIPR, 10 ul of test compound was added to the cells and changes in fluorescence measured over a 2 min timeframe. Maximum change in fluorescence over baseline was used to determine agonist response and concentration response curves were constructed, using a 4-parameter logistic equation.
(§1) The following alternative procedure may also be used:
HEK-293 cells stably expressing the GPR38 receptor were seeded (30,000 cells/100 ul growth media/well) into poly-D-lysine coated 96-well black-wall, clear-bottom microtitre plates (Corning) 24 hours prior to assay. On the day of assay the cells were loaded with 2 μM (final) Fluo-4-AM fluorescent indicator dye (Molecular Probes) and 1 mM (final) probenicid in assay buffer (145 mM sodium chloride, 2.5 mM potassium chloride, 10 mM Hepes, 10 mM glucose, 1.2 mM magnesium chloride, 1.5 mM calcium chloride and 0.1% BSA) (50 ul loading solution added to each well). Plates were incubated for 1 hour at 25° C., before being washed 4 times with 100 ul assay buffer using the EMBLA cell washer; 150 ul residual being left after the final wash. The cells were then incubated at 25° C. for 20 minutes and the plates were then assayed on a Fluorometric Imaging Plate Reader (FLIPR, Molecular Devices). Test compounds were prepared in assay buffer without probenecid. In the FLIPR, 50 ul of test compound was added to the cells and changes in fluorescence measured over a 2 minute timeframe. Maximum change in fluorescence over baseline was used to determine agonist response and concentration response curves were constructed, using a 4-parameter logistic equation.
Target sequence in this assay (O43193 whole entry): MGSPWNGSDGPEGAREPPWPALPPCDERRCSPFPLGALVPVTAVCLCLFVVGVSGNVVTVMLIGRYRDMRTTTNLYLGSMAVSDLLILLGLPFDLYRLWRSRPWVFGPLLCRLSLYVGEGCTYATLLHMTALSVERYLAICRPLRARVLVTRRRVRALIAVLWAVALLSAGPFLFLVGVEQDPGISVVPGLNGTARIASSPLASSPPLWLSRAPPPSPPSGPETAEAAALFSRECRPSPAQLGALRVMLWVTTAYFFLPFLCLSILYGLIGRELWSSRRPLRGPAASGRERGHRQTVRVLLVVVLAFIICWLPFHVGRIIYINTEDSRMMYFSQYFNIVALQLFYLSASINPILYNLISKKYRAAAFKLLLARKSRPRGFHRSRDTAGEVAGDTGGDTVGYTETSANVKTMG

hGPR38R [2] = target: T1, hGPR38R; assay: GPR38 GTPγS functional agonist assay; type: biochemical; parameters: expressed in transfected cells; host or cells: HEK293 (transient transfection; P2 membrane fractions)
Method: The potencies and intrinsic activities of the compounds of this invention can also be determined according to the [35S]GTPγS functional assay which is described herein. It has been found, using the [35S]GTPγS functional assay, that compounds of formula (I) appear to be partial or full agonists of the GPR38 receptor.
GPR38GTPγS Functional Agonist Assay Protocol
For each compound being assayed, in an Opti clear bottom 96 well plate, is added:—
(a) 20 μl of test compound (or 10 μl of guanosine 5′-triphosphate (GTP) as non-specific binding control) diluted to required concentration in assay buffer (20 mM N-2-Hydroxyethylpiperazine-N′-2-ethanesulfonic acid (HEPES)+100 mM NaCl+10 mM MgCl2, pH adjusted to 7.4 with NaOH); (b) 60 μl bead/membrane/GDP mix prepared by suspending wheat germ agglutinin-polyvinyltoluene (WGA-PVT) scintillation proximity assay (SPA) beads at 100 mg/ml in assay buffer followed by mixing with membrane (prepared in accordance with the methodology described above) and diluting in assay buffer to give a final volume of 60 μl which contains 10 μg protein and 0.5 mg bead per well—mixture is pre-mixed at 4° C. for 30 min on a roller and just prior to addition to the plate, 10 μM final concentration of guanosine 5′ diphosphate (GDP—diluted in assay buffer) is added; (c) 20 μl guanosine 5′ [γ35-S]thiotriphosphate, triethylamine salt (Amersham; radioactivity concentration=37 kBq/μl or 1 mCi/ml; Specific Activity 1160 Ci/mmol) diluted to 1.9 nM in assay buffer to give 0.38 nM final.
The plate is incubated on a shaker at 25° C. for 30 min followed by centrifugation for 5 min at 1500 rpm. The plate is read between 3 and 6 h after completion of centrifuge run in a Wallac Microbeta counter on a 1 min normalised tritium count protocol. Data is analysed using a 4-parameter logistic equation. Basal activity used as minimum.
as §1
Target sequence in this assay (O43193 whole entry): as above
Target sequence in this assay (P09471 2-354 partner limits assumed): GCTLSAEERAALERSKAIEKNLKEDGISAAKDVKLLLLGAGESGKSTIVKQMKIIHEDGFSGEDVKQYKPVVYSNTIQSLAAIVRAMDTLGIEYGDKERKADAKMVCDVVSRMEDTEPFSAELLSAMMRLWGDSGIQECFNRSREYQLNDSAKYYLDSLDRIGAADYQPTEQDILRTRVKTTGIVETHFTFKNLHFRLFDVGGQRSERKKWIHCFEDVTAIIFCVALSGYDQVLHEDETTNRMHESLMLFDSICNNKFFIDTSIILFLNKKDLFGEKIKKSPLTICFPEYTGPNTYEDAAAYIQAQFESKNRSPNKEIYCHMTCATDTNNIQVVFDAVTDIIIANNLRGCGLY
Target sequence in this assay (P62873 2-340 partner limits assumed): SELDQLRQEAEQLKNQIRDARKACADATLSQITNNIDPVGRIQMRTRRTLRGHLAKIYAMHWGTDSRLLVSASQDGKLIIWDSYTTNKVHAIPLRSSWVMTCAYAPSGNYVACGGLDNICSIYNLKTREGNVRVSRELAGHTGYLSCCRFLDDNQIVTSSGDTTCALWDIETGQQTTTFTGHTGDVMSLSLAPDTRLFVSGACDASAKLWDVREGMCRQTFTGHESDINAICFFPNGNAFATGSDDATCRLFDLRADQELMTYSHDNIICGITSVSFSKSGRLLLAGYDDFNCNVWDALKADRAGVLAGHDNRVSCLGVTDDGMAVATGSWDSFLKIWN
Target sequence in this assay (P59768 2-68 partner limits assumed): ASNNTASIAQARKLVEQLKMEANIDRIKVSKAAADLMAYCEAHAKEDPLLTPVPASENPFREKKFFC
Membranes are derived from bulk cell cultures of HEK293 cell lines transiently transfected with hGPR38R and Go G-protein. P2 membranes fractions are prepared, aliquoted and stored at −80° C.
For each compound being assayed, the following is added into a white Greiner 384 well plate:—
(a) 1 μl of test compound diluted to required concentration in DMSO. (b) 20 μl bead/membrane/Saponin/GDP mix prepared as follows;—suspension of LEADseeker wheat germ agglutinin (WGA) scintillation proximity assay (SPA) beads at 25 mg/ml in assay buffer (20 mM N-2-Hydroxyethylpiperazine-N′-2-ethanesulfonic acid (HEPES)+100 mM NaCl+10 mM MgCl2, pH adjusted to 7.4 with KOH) containing saponin at 150 ug/ml. Mixing of bead suspension with membranes at 500 ug/ml (prepared in accordance with the methodology described above) and diluting in assay buffer to give a final volume of 20 μl which contains 5 μg protein and 0.25 mg bead per well.
Mixture is pre-mixed for 30 minutes on a roller and just prior to addition to the plate, 3 μM final assay concentration of guanosine 5′ diphosphate (GDP) (diluted in assay buffer) is added.
(c) 25 μl guanosine 5′ [γ35-S]thiotriphosphate, triethylamine salt (Amersham; radioactivity concentration=37 kBq/μl or 1 mCi/ml; Specific Activity 1160 Ci/mmol) diluted to 0.6 nM in assay buffer to give 0.33 nM final assay concentration.
The plate is then spun for 2 minutes at 1500 rpm and then incubated at room temperature for 4 hours. The plate is then read on a Viewlux Plux (Perkin Elmer). Data is analysed using a 4-parameter logistic equation.

[3] = read-out: pEC50 in the FLIPR assay (converted)
[4] = [35S]GTPγS SPA, HEK293 membranes with hGPR38R and Go G-protein, read-out: pEC50 in the GTPγS assay (converted)

Structure (SMILES): C[C@@H]1CN(Cc2ccc(-c3cccnc3C(=O)N3CCC(Cc4ccc(F)cc4)CC3)cc2)C[C@H](C)N1 [Example 1, (3R,5S)-3,5-Dimethyl-1-({4-[2-({4-[(4-Fluorophenyl)methyl]piperidin-1-yl}carbonyl)pyridin-3-yl]phenyl}methyl)piperazine]
- EC50 (hGPR38R [1]; [3]): < 0.316 µM
- EC50 (hGPR38R [2]; [4]): < 3.16 µM

Structure (SMILES): C[C@@H]1CN(Cc2ccc(-c3cccnc3C(=O)N3CCC(Nc4cccc(F)c4)C3)cc2)C[C@H](C)N1 (stereo partly drawn) [Example 33, 1-{[3-(4-{[(3R,5S)-3,5-dimethyl-1-piperazinyl]methyl}phenyl)-2-pyridinyl]carbonyl}-N-(3-fluorophenyl)-3-pyrrolidinamine]
- EC50 (hGPR38R [1]; [3]): < 0.316 µM
- EC50 (hGPR38R [2]; [4]): < 3.16 µM

Structure (SMILES): C[C@@H]1CN(Cc2ccc(-c3cccnc3C(=O)N3CC[C@H](Oc4ccc(F)cc4)C3)cc2)C[C@H](C)N1 [Example 18, (3R,5S)-1-({4[2-({(3S)-3-[(4-fluorophenyl)oxy]-1-pyrrolidinyl}carbonyl)-3-pyridinyl]phenyl}methyl)-3,5-dimethylpiperazine]
- EC50 (hGPR38R [1]; [3]): < 0.316 µM
- EC50 (hGPR38R [2]; [4]): < 3.16 µM

Structure (SMILES): C[C@@H]1CN(Cc2ccc(-n3ccnc3C(=O)N3CCC(Nc4ccc(F)cc4)CC3)cc2)C[C@H](C)N1 [Example 22, 1 {[1-(4-{[(3R,5S)-3,5-Dimethyl-1-piperazinyl]methyl}phenyl)-1H-imidazol-2-yl]carbonyl}-N-(4-fluorophenyl)-4-piperidinamine]
- EC50 (hGPR38R [1]; pEC50 in the FLIPR assay): < 0.316 µM
- EC50 (hGPR38R [2]): < 3.16 µM

Structure (SMILES): C[C@@H]1CN(Cc2ccc(-c3cccnc3CN(C)C(=O)CCc3ccc(F)cc3)cc2)C[C@H](C)N1 [Example 3, N-{[3-(4{[(3R,5S)-3,5-Dimethyl-1-piperazinyl]methyl}phenyl)-2-pyridinyl]methyl}-3-(4-fluorophenyl)-N-methylpropanamide]
- EC50 (hGPR38R [1]; [3]): < 0.316 µM
- EC50 (hGPR38R [2]; [4]): < 3.16 µM

Structure (SMILES): C[C@@H]1CN(Cc2ccc(-c3cccnc3C(=O)N3CCC(Nc4cccc(C#N)c4)CC3)cc2)C[C@H](C)N1 [Example 29, 3-[(1-{[3-(4-{[(3R,5S)-3,5-dimethyl-1-piperazinyl]methyl}phenyl)-2-pyridinyl]carbonyl}-4-piperidinyl)amino]benzonitrile]
- EC50 (hGPR38R [1]; [3]): < 0.316 µM
- EC50 (hGPR38R [2]; [4]): < 3.16 µM

Structure (SMILES): C[C@@H]1CN(Cc2ccc(-n3ccnc3C(=O)N3CCC(Nc4ccc(F)cc4)CC3)cc2F)C[C@H](C)N1 [Example 24, 1-{[1-(4-{[(3R,5S)-3,5-dimethyl-1-piperazinyl]methyl}-3-fluorophenyl)-1H-imidazol-2-yl]carbonyl}-N-(4-fluorophenyl)-4-piperidinamine]
- EC50 (hGPR38R [2]): < 3.16 µM

Structure (SMILES): C[C@@H]1CN(Cc2ccc(-c3cccnc3C(=O)N3CCC(Nc4cccc(C#N)c4)CC3)cc2F)C[C@H](C)N1 [Example 30, 3-[(1-{[3-(4-{[(3R,5S)-3,5-dimethyl-1-piperazinyl]methyl}-3-fluorophenyl)-2-pyridinyl]car-bonyl}-4-piperidinyl)amino]benzonitrile]
- EC50 (hGPR38R [2]; [4]): < 3.16 µM

Structure (SMILES): C[C@@H]1CN(Cc2ccc(-n3ccnc3C(=O)N3CCC(Nc4cccc(F)c4)CC3)cc2F)C[C@H](C)N1 [Example 25, 1-{[1-(4-{[(3R,5S)-3,5-dimethyl-1-piperazinyl]methyl}-3-fluorophenyl)-1H-imidazol-2-yl]carbonyl}-N-(3-fluorophenyl)-4-piperidinamine]
- EC50 (hGPR38R [2]): < 3.16 µM

Structure (SMILES): C[C@@H]1CN(Cc2ccc(-c3cccnc3C(=O)N3CCC(Nc4ccc(F)c(F)c4)CC3)cc2)C[C@H](C)N1 [Example 15, N-(3,4-difluorophenyl)-1-{[3-(4-{[(3R,5S)-3,5-dimethyl-1-piperazinyl]methyl}phenyl)-2-pyridinyl]carbonyl}-4-piperidinamine]
- EC50 (hGPR38R [1]; pEC50 in the FLIPR assay): < 0.316 µM
- EC50 (hGPR38R [2]): < 3.16 µM

Structure (SMILES): C[C@@H]1CN(Cc2ccc(-n3ccnc3C(=O)N3CCC(Nc4ccccc4F)CC3)cc2)C[C@H](C)N1 [Example 23, 1-{[1-(4-{[(3R,5S)-3,5-dimethyl-1-piperazinyl]methyl}phenyl)-1H-imidazol-2-yl]carbonyl}-N-(2-fluorophenyl)-4-piperidinamine]
- EC50 (hGPR38R [2]): < 3.16 µM

Structure (SMILES): Cc1nc(C(=O)N2CCC(Cc3ccc(F)cc3)CC2)c(-c2ccc(CN3C[C@@H](C)N[C@@H](C)C3)cc2)s1 [Example 4, (3R,5S)-3,5-Dimethyl-1-({4-[4-({4-[(4-fluorophenyl)methyl]piperidin-1-yl}carbonyl)-2-methyl-1,3-thiazol-5-yl]phenyl}methyl)piperazine]
- EC50 (hGPR38R [2]; [4]): < 3.16 µM

Structure (SMILES): Cc1nc(C(=O)N2CCC(Nc3ccc(F)cc3)CC2)c(-c2ccc(CN3C[C@@H](C)N[C@@H](C)C3)cc2)s1 [Example 5]
- EC50 (hGPR38R [2]): < 3.16 µM

Structure (SMILES): Cc1nc(CN(C)C(=O)COc2ccc(F)cc2)c(-c2ccc(CN3C[C@@H](C)N[C@@H](C)C3)cc2)s1 [Example 7, N-{[5-(4-{[(3R,5S)-3,5-dimethyl-1-piperazinyl]methyl}phenyl)-2-methyl-1,3-thiazol-4-yl]methyl}-2-[(4-fluorophenyl)oxy]-N-methylacetamide]
- EC50 (hGPR38R [2]; [4]): < 3.16 µM

Structure (SMILES): C[C@@H]1CN(Cc2ccc(-c3cccnc3C(=O)N3CCC(Oc4cccc(F)c4)CC3)cc2F)C[C@H](C)N1 [Example 35, (3R,5S)-1-({2-fluoro-4-[2-({4-[(3-fluorophenyl)oxy]-1-piperidinyl}carbonyl)-3-pyridinyl]phenyl}methyl)-3,5-dimethylpiperazine]
- EC50 (hGPR38R [1]; [3]): < 0.316 µM

Structure (SMILES): C[C@@H]1CN(Cc2ccc(-c3cccnc3C(=O)N3CCC(Nc4cc(F)cc(F)c4)CC3)cc2F)C[C@H](C)N1 [Example 27, N-(3,5-difluorophenyl)-1-{[3-(4-{[(3R,5S)-3,5-dimethyl-1-piperazinyl]methyl}-3-fluorophenyl)-2-pyridinyl]carbonyl}-4-piperidinamine]
- EC50 (hGPR38R [2]): < 3.16 µM
